In patent US8853423B2, “Indane estrogen receptor modulators and uses thereof” (Seragon Pharmaceuticals, Inc., priority 2010, dated 2014):
pIC50: −log10 of the molar value.

Tests used:
Assay type in all cases: cell-based
MCF-7 cells = experiment: Breast Cancer Cell Viability Assay (MCF7 Viability Assay, CellTiter-Glo); settings: 5 days' compound exposure; for pIC50: Homo sapiens, MCF7, 120 h
Method: MCF-7 cells were adjusted to a concentration of 20,000 cells per mL in RPMI containing 10% FBS and 20 mM HEPES. 16 microliters of the cell suspension (320 cells) was added to each well of a 384 well plate, and the cells were incubated overnight to allow the cells to adhere. The following day an eleven point, serial semilog dilution of each compound was added to the cells in 16 μL at a final concentration ranging from 0.3-0.000003 μM. After 5 days' compound exposure, 16 μL of CellTiter-GLo (Promega, Madison Wis.) was added to the cells the relative luminescence units (RLUs) of each well was determined. CellTiter-Glo added to 32 μL of medium without cells was used to obtain a background value. The Percent viability of each sample was determined as follows: (RLU sample-RLU background/RLU untreated cells-RLU background)×100=% viability.

ER-α [1] = target: T1, ER-α (Homo sapiens, UniProt P03372); experiment: ER-α in Cell Western Assay (ER1D5); settings: MCF-7 cells, ER1D5 antibody, 4 or 24 hr post compound addition, read-out: ER In-Cell Western Assay (ER1D5); for Emax: MCF7, Max Response; for DC50: IC50
T1 construct: endogenous in cells; host or cells: MCF-7
T1 sequence (P03372 1-595): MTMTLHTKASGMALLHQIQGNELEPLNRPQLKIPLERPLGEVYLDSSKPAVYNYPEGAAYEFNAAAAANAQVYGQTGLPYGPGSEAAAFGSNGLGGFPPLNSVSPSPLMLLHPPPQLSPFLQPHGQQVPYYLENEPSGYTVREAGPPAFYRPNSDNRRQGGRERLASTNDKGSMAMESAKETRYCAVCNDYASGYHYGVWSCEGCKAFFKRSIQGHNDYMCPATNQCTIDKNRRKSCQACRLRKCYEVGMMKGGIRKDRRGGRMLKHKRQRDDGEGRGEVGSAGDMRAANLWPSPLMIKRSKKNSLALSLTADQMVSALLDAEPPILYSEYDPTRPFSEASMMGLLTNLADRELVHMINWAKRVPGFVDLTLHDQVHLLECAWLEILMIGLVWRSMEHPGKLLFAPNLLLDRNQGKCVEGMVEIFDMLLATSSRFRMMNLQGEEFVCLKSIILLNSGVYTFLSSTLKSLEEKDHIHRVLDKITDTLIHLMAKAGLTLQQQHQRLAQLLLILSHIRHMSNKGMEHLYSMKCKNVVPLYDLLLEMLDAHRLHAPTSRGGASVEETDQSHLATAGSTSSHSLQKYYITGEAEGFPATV
Method: (§1) MCF-7 cells were adjusted to a concentration of 200,000 cells per mL in RPMI containing 10% charcoal-stripped FBS and 20 mM HEPES. 16 microliters of the cell suspension (3200 cells) was added to each well of a poly-D-lysine 384 well plate, and the cells were incubated overnight to allow the cells to adhere. The following day an eleven point, serial semilog dilution of each compound was added to the cells in 16 μL at a final concentration ranging from 0.3-0.000003 μM. At 4 or 24 hr post compound addition, the cells were fixed (10% formalin in PBS) for 20 minutes. Cells were permeabalized in PBS 0.1% Triton and blocked with LICOR blocking buffer (50 μl/well, 90′). The wells were then incubated overnight at 4° C. with ER1D5 (Santa Cruz Biotechnology) diluted 1:100 in LICOR blocking buffer/0.1% Tween-20. Wells which were treated with blocking buffer with Tween but no antibody were used as a background control. Wells were washed with 0.1% Tween-20/PBS and then incubated in goat anti-mouse IRDye™ 800CW (LICOR Inc.; 1:1000) and DRAQ5 DNA dye (1:2000 for 2 mM stock) diluted in LICOR blocking buffer containing 0.1% Tween-20 and 0.01% SDS for 60 minutes. Cells were washed (50 μl/well, 5′ each) in 0.1% Tween-20/PBS. Plates were scanned on a LICOR Odyssey infrared imaging system. Integrated intensities in the 800 nm channel and 700 nm channel were measured to determine levels of ER and DNA respectively. Percent ER levels were determined as follows: (Integrated intensity 800 nm sample/integrated intensity 700 nm sample)/(Integrated intensity 800 nm untreated cells/integrated intensity 700 nm untreated cells)×100=% ER levels.

ER-α [2] = target: T1, ER-α; experiment: ER-α in Cell Western Assay (SP1); settings: MCF-7 cells, SP1 rabbit monoclonal Ab, 4 or 24 hr post compound addition, read-out: ER In-Cell Western Assay (SP1); for Emax: MCF7, Max Response; for DC50: IC50
Method: as §1, with “with SP1 rabbit monoclonal Ab (Thermo Scientific)” for “with ER1D5 (Santa Cruz Biotechnology)”, “diluted 1:1000” for “diluted 1:100”, “goat anti-rabbit” for “goat anti-mouse”

| pIC50 (MCF-7 cells) | Emax (ER-α [1]) [%] | DC50 (ER-α [1]) [nM] | Emax (ER-α [2]) [%] | DC50 (ER-α [2]) [nM] | Structure (SMILES) | MCF7 Viability Assay Max Response (MCF-7 cells) |
| --- | --- | --- | --- | --- | --- | --- |
| ≥ 9.00 | 40 to 65 | ≤ 1 | 60 to 85 | ≤ 1 | Oc1ccc(C2Cc3cc(O)ccc3C2c2ccc(OCCN3CCCC3)cc2)cc1 (stereo not drawn) [Example 1, 2-(4-Hydroxyphenyl)-1-(4-(2-(pyrrolidin-1-yl)ethoxy)phenyl)-2,3-dihydro-1H-inden-5-ol] | ++ (++ = a single % value ≧50%) |
| ≥ 9.00 | ≥ 65 | ≤ 1 | ≥ 85 | ≤ 1 | C[C@@H]1CCN([C@@H](C)COc2ccc(C3c4ccc(O)cc4CC3c3ccc(O)cc3)cc2)C1 (stereo partly drawn) [Example 2, 2-(4-Hydroxyphenyl)-1-(4-((S)-2-((R)-3-methylpyrrolidin-1-yl)propoxy)phenyl)-2,3-dihydro-1H-inden-5-ol] | ++ (++ = a single % value ≧50%) |
| ≥ 9.00 | ≥ 65 | ≤ 1 | ≥ 85 | ≤ 1 | C[C@@H]1CCN([C@@H](C)COc2ccc(C3c4ccc(O)cc4CC3c3cccc(O)c3)cc2)C1 (stereo partly drawn) [Example 3, 2-(3-Hydroxyphenyl)-1-(4-((S)-2-((R)-3-methylpyrrolidin-1-yl)propoxy)phenyl)-2,3-dihydro-1H-inden-5-ol] | ++ (++ = a single % value ≧50%) |
| ≥ 9.00 | ≥ 65 | ≤ 1 | ≥ 85 | ≤ 1 | C[C@@H]1CCN([C@@H](C)COc2ccc(C3c4ccc(O)cc4CC3c3ccccc3)cc2)C1 (stereo partly drawn) [Example 4, 1-(4-((S)-2-((R)-3-Methylpyrrolidin-1-yl)propoxy)phenyl)-2-phenyl-2,3-dihydro-1H-inden-5-ol] | ++ (++ = a single % value ≧50%) |
| ≥ 9.00 | – | – | ≥ 85 | ≤ 1 | C[C@@H]1CCN([C@@H](C)COc2ccc(C3c4ccc(O)c(F)c4CC3c3ccc(O)cc3)cc2)C1 (stereo partly drawn) [Example 5, 4-Fluoro-2-(4-hydroxyphenyl)-1-(4-((S)-2-((R)-3-methylpyrrolidin-1-yl)propoxy)phenyl)-2,3-dihydro-1H-inden-5-ol] | ++ (++ = a single % value ≧50%) |
| < 9.00 | – | – | ≥ 85 | ≤ 1 | C[C@@H]1CCN([C@@H](C)COc2ccc(C3c4ccc(O)cc4CC3c3ccc(F)cc3)cc2)C1 (stereo partly drawn) [Example 6, 2-(4-Fluorophenyl)-1-(4-((S)-2-((R)-3-methylpyrrolidin-1-yl)propoxy)phenyl)-2,3-dihydro-1H-inden-5-ol] | ++ (++ = a single % value ≧50%) |
| < 9.00 | – | – | 60 to 85 | ≤ 1 | Oc1ccc2c(c1)CC(c1ccccc1)C2c1ccc(OCCN2CCCC2)cc1 (stereo not drawn) [Example 7, 2-Phenyl-1-(4-(2-(pyrrolidin-1-yl)ethoxy)phenyl)-2,3-dihydro-1H-inden-5-ol] | ++ (++ = a single % value ≧50%) |
